How the values were obtained:
[1] = molecular target: T1, Peroxisome proliferator-activated receptor alpha (Homo sapiens, UniProt Q07869)
T1 sequence (Q07869 whole entry): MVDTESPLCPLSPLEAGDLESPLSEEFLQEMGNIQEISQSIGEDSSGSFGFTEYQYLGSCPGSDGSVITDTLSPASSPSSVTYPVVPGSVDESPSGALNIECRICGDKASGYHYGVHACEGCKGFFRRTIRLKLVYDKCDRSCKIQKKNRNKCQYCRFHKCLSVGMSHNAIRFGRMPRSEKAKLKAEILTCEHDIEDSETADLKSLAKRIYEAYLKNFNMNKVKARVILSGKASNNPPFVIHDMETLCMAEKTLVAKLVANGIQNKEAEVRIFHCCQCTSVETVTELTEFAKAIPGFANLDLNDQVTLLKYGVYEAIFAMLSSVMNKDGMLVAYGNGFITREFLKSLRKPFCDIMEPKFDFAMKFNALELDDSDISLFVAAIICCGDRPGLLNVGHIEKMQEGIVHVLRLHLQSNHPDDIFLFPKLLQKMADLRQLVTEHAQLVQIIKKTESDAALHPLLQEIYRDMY
Description: Agonist activity at human PPARalpha assessed as receptor activation by cell based assay

[2] = molecular target: T2, Peroxisome proliferator-activated receptor alpha (Mus musculus, UniProt P23204)
T2 sequence (P23204 whole entry): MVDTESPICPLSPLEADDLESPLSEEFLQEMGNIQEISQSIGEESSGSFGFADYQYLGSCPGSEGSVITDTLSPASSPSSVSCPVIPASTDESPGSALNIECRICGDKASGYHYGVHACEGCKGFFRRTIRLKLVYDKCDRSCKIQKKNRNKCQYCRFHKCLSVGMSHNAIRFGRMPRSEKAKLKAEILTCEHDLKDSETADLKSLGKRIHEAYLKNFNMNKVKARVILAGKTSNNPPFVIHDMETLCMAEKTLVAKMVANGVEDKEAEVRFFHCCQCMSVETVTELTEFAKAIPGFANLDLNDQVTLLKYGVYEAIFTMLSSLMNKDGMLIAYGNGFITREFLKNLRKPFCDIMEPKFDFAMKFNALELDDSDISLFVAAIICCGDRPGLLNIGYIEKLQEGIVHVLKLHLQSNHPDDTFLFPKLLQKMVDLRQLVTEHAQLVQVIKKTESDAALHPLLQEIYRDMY
Description: (§1) Agonist activity at mouse PPARalpha assessed as receptor activation by cell based assay

[3] = molecular target: T3, Peroxisome proliferator-activated receptor alpha (Mus musculus) (UniProt P23204)
T3 sequence (whole entry): T2 sequence (P23204 whole entry)
Description: as §1

[4] = molecular target: T4, Peroxisome proliferator-activated receptor delta (Homo sapiens, UniProt Q03181)
T4 sequence (Q03181 whole entry): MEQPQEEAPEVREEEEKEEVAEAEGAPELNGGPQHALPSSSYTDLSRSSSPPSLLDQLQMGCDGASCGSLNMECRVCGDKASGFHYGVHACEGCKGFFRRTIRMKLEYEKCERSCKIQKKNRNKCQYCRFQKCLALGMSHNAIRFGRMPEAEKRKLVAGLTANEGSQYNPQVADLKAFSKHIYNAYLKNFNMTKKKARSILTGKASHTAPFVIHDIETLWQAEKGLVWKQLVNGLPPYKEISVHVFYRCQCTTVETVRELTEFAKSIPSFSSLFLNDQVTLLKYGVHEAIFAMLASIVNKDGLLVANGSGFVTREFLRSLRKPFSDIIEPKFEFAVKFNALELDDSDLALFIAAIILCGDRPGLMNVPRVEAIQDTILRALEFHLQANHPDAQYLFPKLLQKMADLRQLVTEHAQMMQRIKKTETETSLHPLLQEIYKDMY
Description: Agonist activity at human PPARdelta assessed as receptor activation by cell based assay

[5] = molecular target: T5, Peroxisome proliferator-activated receptor delta (Mus musculus, UniProt P35396)
T5 sequence (P35396 whole entry): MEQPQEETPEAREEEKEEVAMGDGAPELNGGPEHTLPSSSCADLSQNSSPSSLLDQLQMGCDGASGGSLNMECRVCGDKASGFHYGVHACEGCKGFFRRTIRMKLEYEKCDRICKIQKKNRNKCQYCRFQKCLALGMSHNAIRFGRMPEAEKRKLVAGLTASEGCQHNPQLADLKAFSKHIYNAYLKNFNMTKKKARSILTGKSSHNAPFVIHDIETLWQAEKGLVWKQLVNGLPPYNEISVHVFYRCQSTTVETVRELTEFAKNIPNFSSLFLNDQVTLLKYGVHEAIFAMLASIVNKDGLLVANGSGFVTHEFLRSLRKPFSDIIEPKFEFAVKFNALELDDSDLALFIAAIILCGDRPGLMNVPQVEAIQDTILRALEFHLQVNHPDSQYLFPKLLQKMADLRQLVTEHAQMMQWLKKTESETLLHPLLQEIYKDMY
Description: Agonist activity at mouse PPARdelta assessed as receptor activation by cell based assay

[6] = molecular target: T6, Peroxisome proliferator-activated receptor gamma (Homo sapiens, UniProt P37231)
T6 sequence (P37231 whole entry): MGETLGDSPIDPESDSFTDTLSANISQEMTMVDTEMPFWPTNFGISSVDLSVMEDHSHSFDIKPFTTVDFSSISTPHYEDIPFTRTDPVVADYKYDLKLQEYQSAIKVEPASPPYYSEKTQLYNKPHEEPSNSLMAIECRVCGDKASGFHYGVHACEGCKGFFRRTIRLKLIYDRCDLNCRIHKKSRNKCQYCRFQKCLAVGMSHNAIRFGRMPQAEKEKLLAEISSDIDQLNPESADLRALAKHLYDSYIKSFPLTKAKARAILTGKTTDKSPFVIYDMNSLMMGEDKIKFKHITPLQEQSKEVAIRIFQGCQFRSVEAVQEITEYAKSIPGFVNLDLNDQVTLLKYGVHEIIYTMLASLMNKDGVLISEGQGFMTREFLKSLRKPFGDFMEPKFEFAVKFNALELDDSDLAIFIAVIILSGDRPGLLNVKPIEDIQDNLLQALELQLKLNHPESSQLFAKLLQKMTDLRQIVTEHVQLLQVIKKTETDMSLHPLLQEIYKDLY
Description: Agonist activity at human PPARgamma assessed as receptor activation by cell based assay

[7] = molecular target: T7, Peroxisome proliferator-activated receptor gamma (Mus musculus, UniProt P37238)
T7 sequence (P37238 whole entry): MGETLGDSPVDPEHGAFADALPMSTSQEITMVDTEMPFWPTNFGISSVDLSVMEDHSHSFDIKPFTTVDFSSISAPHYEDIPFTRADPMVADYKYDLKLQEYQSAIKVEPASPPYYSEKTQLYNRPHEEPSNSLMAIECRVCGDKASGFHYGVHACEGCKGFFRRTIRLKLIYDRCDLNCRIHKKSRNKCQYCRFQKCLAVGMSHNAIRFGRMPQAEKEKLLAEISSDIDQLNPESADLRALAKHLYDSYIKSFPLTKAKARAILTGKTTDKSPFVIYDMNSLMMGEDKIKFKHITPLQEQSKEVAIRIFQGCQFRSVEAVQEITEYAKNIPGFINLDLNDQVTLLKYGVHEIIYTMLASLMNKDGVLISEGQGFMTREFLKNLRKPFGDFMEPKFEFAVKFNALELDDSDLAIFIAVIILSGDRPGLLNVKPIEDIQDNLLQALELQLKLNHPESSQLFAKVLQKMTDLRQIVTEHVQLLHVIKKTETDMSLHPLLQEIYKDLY
Description: Agonist activity at mouse PPARgamma assessed as receptor activation by cell based assay

Compound	EC50 [1] [nM]	EC50 [2] [nM]	Activity [3] [%]	EC50 [4] [nM]	EC50 [5] [nM]	EC50 [6] [nM]	EC50 [7] [nM]
COCc1nc(-c2ccc(C(=O)NCc3ccc(NS(=O)(=O)C(F)(F)F)cc3)cc2)no1	360	700	116	–	–	–	–
Cc1ccc(S(=O)(=O)Nc2ccc(CNC(=O)c3sc(-c4ccc(C(F)(F)F)cc4)nc3C)cc2)cc1	1000	> 10000	–	> 10000	> 10000	> 10000	> 10000
CC(C)(Oc1ccc(CNC(=O)c2ccc(-c3ccc(Cl)cc3)cc2)cc1)C(=O)O	70	1000	130	–	–	–	–
N#Cc1ccc(-c2ccc(C(=O)NCc3ccc(NS(=O)(=O)C(F)(F)F)cc3)cc2)cc1	20	200	152	–	–	–	–
O=C(Cc1ccc(-c2ccc(Cl)cc2)cc1)NCc1ccc(NS(=O)(=O)C(F)(F)F)cc1	80	340	0.34	–	–	–	–
COCc1nc(-c2ccc(C(=O)NCc3ccc(OC(C)(C)C(=O)O)cc3)cc2)no1	3000	> 25000	–	–	–	–	–
Cc1nc(-c2ccc(C(F)(F)F)cc2)sc1C(=O)NCc1ccc(OC(C)(C)C(=O)O)cc1 [GW590735]	–	20	103	–	1700	9700	9700
CC(C)(Oc1ccc(CNC(=O)c2ccc(-c3ccc(C#N)cc3)cc2)cc1)C(=O)O	1000	> 25000	–	–	–	–	–
Cc1nc(-c2ccc(C(F)(F)F)cc2)sc1C(=O)NCc1ccc(OC(C)(C)C(=O)NS(=O)(=O)C(F)(F)F)cc1	> 10000	> 10000	–	> 10000	> 10000	> 10000	> 10000
Cc1nc(-c2ccc(C(F)(F)F)cc2)sc1C(=O)NCc1ccc(-c2c(O)c(=O)c2=O)cc1	> 10000	> 10000	–	> 10000	> 10000	> 10000	> 10000
CCCCS(=O)(=O)Nc1ccc(CNC(=O)c2sc(-c3ccc(C(F)(F)F)cc3)nc2C)cc1	320	> 10000	–	> 10000	> 10000	5500	6700
COc1ccc2sc(C(=O)NCc3ccc(OC(C)(C)C(=O)O)cc3)cc2c1	6000	> 25000	–	–	–	–	–
Cc1nc(-c2ccc(C(F)(F)F)cc2)sc1C(=O)NCc1ccc(NS(=O)(=O)CC(F)(F)F)cc1	3	60	74	> 10000	> 10000	300	300
Cc1nc(-c2ccc(C(F)(F)F)cc2)sc1C(=O)NCc1ccc(NS(=O)(=O)C(F)(F)F)cc1	0.3	2	98	400	300	500	600
Cc1nc(-c2ccc(C(F)(F)F)cc2)sc1C(=O)NCc1ccc(NC(=O)C(F)(F)F)cc1	450	> 10000	–	> 10000	> 10000	> 10000	> 10000
Cc1nc(-c2ccc(C(F)(F)F)cc2)sc1C(=O)NCc1ccc(NS(=O)(=O)C(C)C)cc1	50	> 10000	–	> 10000	> 10000	> 10000	> 10000
Cc1nc(-c2ccc(C(F)(F)F)cc2)sc1C(=O)NCc1ccc(CNS(=O)(=O)C(F)(F)F)cc1	80	> 10000	–	> 10000	> 10000	> 10000	> 10000
Cc1csc(-c2ccc(C(=O)NCc3ccc(OC(C)(C)C(=O)O)cc3)cc2)n1	5000	> 25000	–	–	–	–	–
Cc1csc(-c2ccc(C(=O)NCc3ccc(NS(=O)(=O)C(F)(F)F)cc3)cc2)n1	60	80	96	–	–	–	–
Cc1nc(-c2ccc(C(F)(F)F)cc2)sc1C(=O)NCc1ccc(NS(C)(=O)=O)cc1	60	800	78	> 10000	> 10000	> 10000	> 10000
CC(C)(Oc1ccc(CNC(=O)Cc2ccc(-c3ccc(Cl)cc3)cc2)cc1)C(=O)O	2800	> 25000	–	–	–	–	–
COc1ccc2sc(C(=O)NCc3ccc(NS(=O)(=O)C(F)(F)F)cc3)cc2c1	80	130	132	–	–	–	–
Cc1nc(-c2ccc(C(F)(F)F)cc2)sc1C(=O)NCc1ccc(OCc2nn[nH]n2)cc1	> 10000	> 10000	–	> 10000	> 10000	> 10000	> 10000

— ChEMBL document CHEMBL1140804, “Design, synthesis and evaluation of trifluoromethane sulfonamide derivatives as new potent and selective peroxisome proliferator-activated receptor alpha agonists” (Bioorg Med Chem Lett, 2008)
